According to publication PMC11768359, “2-Aminothiophene Derivatives—New Drug Candidates Against Leishmaniasis: Drug Design, Synthesis, Pharmacomodulation, and Antileishmanial Activity” (Pharmaceuticals, 2025):
Where “and” joins values, the source holds several entries; their conditions need not be identical. Equal values may be shown once. Read-outs that look alike come from different tables or passages of the source.

Tests used:
[1] = test system: promastigotes of L. amazonensis; assay: Growth inhibition of promastigote forms of L. amazonensis (MTT); type: cell-based, Leishmania amazonensis; conditions: 72 h, 26 °C
Description: (§1) The in vitro tests utilized Leishmania amazonensis parasites (IFLA/BR/67/PH8). These leishmania cell lines were obtained from Oswaldo Cruz Foundation (FIOCRUZ)/Brazil. The promastigote forms were cultivated in Schneider’s insect medium at 26 °C in a biological oxygen demand (BOD) incubator. Schneider’s insect medium was supplemented with 20% fetal bovine serum (FBS) and 1% penicillin (100 U/mL) and streptomycin (µg/mL) (complete Schneider). Next, we differentiated them from promastigote forms by changing the conditions to Schneider’s insect medium supplemented with 5% FBS, pH 4.6, and a temperature of 32 °C to obtain axenic amastigote forms of L. amazonensis. Meanwhile, RAW 264.7 macrophages were cultured in […] cell culture flasks using DMEM medium supplemented with 10% FBS, 1% penicillin 100 U/mL, and 100 μg/mL streptomycin (complete DMEM) and incubated at 37 °C and 5% CO2.
(§2) Parasite growth inhibition was evaluated using the methodology described by Rodrigues et al. (2015). Cultures of logarithmically growing promastigote and axenic amastigote forms (1 × 10^6 parasites/mL) were incubated in 96-well plates containing 100 µL of supplemented Schneider’s medium in triplicate. Serial concentrations of 2-amino-thiophene and 2-amino-selenophene derivatives (10.00–0.156 μM) and the reference drugs meglumine antimoniate (500–40,000 μg/mL), amphoterecinB (0.1–2 μM), and pentamidine (3.12–100 µM) were added. BNP was used as a negative control. The cultures were incubated in a biological oxygen demand oven (model Eletrolab EL202, São Paulo, Brazil) at 26 °C for promastigotes and 32 °C for axenic amastigotes for 72 h. Then, 10 μL of MTT (5 mg/mL) was added to each well to colorimetrically evaluate growth inhibition. The plate was subsequently incubated for a further 4 h, followed by adding 50 μL of 10% sodium dodecyl sulfate solution for […] before the optical density of the culture was read on a microplate spectrophotometer reader. The reading was taken at the test and reference wavelengths of 540 and 620 nm using a microplate spectrophotometer. The negative control consisted of 0.2% […] with BNP, considered to be 100% viable.

[2] = test system: axenic amastigotes of L. amazonensis; assay: Growth inhibition of axenic amastigote forms of L. amazonensis (MTT); type: cell-based, Leishmania amazonensis; conditions: 72 h, 32 °C
Description: as §1, §2

[3] = test system: promastigotes of L. amazonensis; conditions: cited from earlier work
[4] = Cytotoxicity in macrophages (MTT); type: cell-based; conditions: mouse, RAW 264.7 macrophages
Description: as §1
First, 100 μL DMEM medium complete with 1 × 10^6 macrophages (RAW 264.7) was added to each well of a 96-well plate. RAW 264.7 macrophages were obtain from ATCC: code TIB-71^TM. The plate was placed in an incubator (37 °C, 5% CO2) (Sanyo, model COM-15A, Sanyo Electric Co., Osaka, Japan) for 4 h to promote cell adhesion. After this period, two washes were conducted with previously heated DMEM medium (37 °C) to remove non-adhered cells. 2-amino-thiophene and 2-amino-selenophene derivatives were added to wells at serial concentrations of 400 to 25 µM and then incubated for 48 h. Next, 10 μL of MTT at a […] of 5 mg/mL were added to each well and incubated for 4 h. The plate was then shaken for 30 min and read at the test and reference wavelengths of 550 and 620 nm, respectively, in a plate reader. DMEM medium supplemented with 0.5% DMSO was used as a negative control and considered as 100% macrophage viability. The selectivity index for each treatment was calculated as the ratio between the concentration of cytotoxicity of RAW 264.7 macrophages (CC50) and the 50% inhibitory concentration (IC50) or effective concentration (EC50), as measured for the different evolutionary forms of L. amazonensis.

[5] = test system: axenic amastigotes of L. amazonensis; conditions: cited from earlier work
[6] = L. amazonensis promastigotes, previously published, read-out: IC50 Promastigotes
[7] = L. amazonensis axenic amastigotes, previously published
[8] = L. amazonensis axenic amastigotes, previously published, read-out: IC50 Amastigotes
[9] = L. amazonensis promastigotes, previously published
[10] = L. amazonensis, read-out: IC50 against axenic amastigotes
[11] = L. amazonensis, read-out: IC50 against promastigotes
[12] = L. amazonensis promastigotes, sensitive strain, read-out: IC50 anti-promastigote

Row | Compound | IC50 ([1]; Leishmania amazonensis) [µM] | IC50 ([2]; Leishmania amazonensis) [µM] | other results
1 | Cc1cc(C#N)c(N)s1 [Compound 1] | > 10 | > 10 | –
2 | NC(=O)c1ccsc1N [Compound 2] | ≥ 10 | > 10 | IC50 [1]: > 10 µM
3 | CCOC(=O)c1ccsc1N [Compound 3] | ≥ 10 | > 10 | IC50 [1]: > 10 µM
4 | N#Cc1c(N)sc2c1CCC2 [Compound 4] | > 10 | > 10 | –
5 | N#Cc1c(N)sc2c1CCCC2 [Compound 5] | – | – | IC50 [3, 6]: > 10 µM
6 | NC(=O)c1c(N)sc2c1CCCC2 [Compound 7] | ≥ 10 | > 10 | IC50 [1]: > 10 µM
7 | NC(=O)c1c(N)sc2c1CCCCCC2 [Compound 8] | ≥ 10 | > 10 | IC50 [1]: > 10 µM
8 | CCOC(=O)c1c(N)sc2c1CCC2 [Compound 9] | > 10 | – | –
9 | CCOC(=O)c1c(N)sc2c1CCCC2 [Compound 10] | > 10 | – | –
10 | CCOC(=O)c1c(N)sc2c1CCCCC2 [Compound 11] | > 10 | – | –
11 | CC1CCc2c(sc(N)c2C#N)C1 (centres unmarked) [Compound 13] | > 10 | > 10 | –
12 | CCC1CCc2c(sc(N)c2C#N)C1 (centres unmarked) [Compound 14] | > 10 | > 10 | –
13 | CCCC1CCc2c(sc(N)c2C#N)C1 (centres unmarked) [Compound 15] | < 10 | < 10 | IC50 [1]: 9.2 µM; IC50 [2]: 9.3 µM
14 | CC(C)(C)OC(=O)N1CCc2c(sc(N)c2C#N)C1 [Compound 17, 2-Amino-6-N-Boc-Piperidine[b]Thiophene-3-Carbonitrile] | 8.61 | > 10 | –
15 | N#Cc1c(N)sc2c1CCN(Cc1ccccc1)C2 [Compound 18] | > 10 | > 10 | IC50 Promastigotes [1]: inactive compound
16 | CCOC(=O)c1c(N)sc2c1CCC(C)C2 (centres unmarked) [Compound 20] | ≥ 10 | – | IC50 [1]: > 10 µM
17 | CCOC(=O)c1c(N)sc2c1CCN(C(=O)OC(C)(C)C)C2 [Compound 21] | 3.1 | 2.9 | CC50 at 48 h [4]: 221 µM
18 | N#Cc1c(N)sc2c1CCNC2 [Compound 23] | > 10 | > 10 | –
19 | Cc1cc(C#N)c(/N=C/c2c[nH]c3ccc(Br)cc23)s1 [Compound 24] | > 10 | > 10 | –
20 | N#Cc1c(/N=C/c2c[nH]c3ccc(Br)cc23)sc2c1CCC2 [Compound 25] | – | – | IC50 Amastigotes [5, 7]: inactive against the two evolutionary forms; IC50 [5, 8]: > 10 µM; IC50 Promastigotes [3, 9]: inactive against the two evolutionary forms; IC50 [3, 6]: > 10 µM
21 | N#Cc1c(/N=C/c2c[nH]c3ccc(Br)cc23)sc2c1CCCCCCCCCC2 [Compound 26] | – | – | IC50 Amastigotes [5, 7]: inactive against the two evolutionary forms; IC50 [5, 8]: > 10 µM; IC50 Promastigotes [3, 9]: inactive against the two evolutionary forms; IC50 [3, 6]: > 10 µM

Row | Compound | IC50 ([1]; Leishmania amazonensis) [µM] | IC50 ([2]; Leishmania amazonensis) [µM] | other results
22 | CCC1CCc2c(sc(/N=C/c3c[nH]c4ccc(Br)cc34)c2C#N)C1 (centres unmarked) [Compound 27] | > 10 | > 10 | –
23 | CCCC1CCc2c(sc(/N=C/c3c[nH]c4ccc(Br)cc34)c2C#N)C1 (centres unmarked) [Compound 28] | < 10 | > 10 | IC50 [1]: 8.12 µM
24 | CC(C)(C)C1CCc2c(sc(/N=C/c3c[nH]c4ccc(Br)cc34)c2C#N)C1 (centres unmarked) [Compound 29] | > 10 | > 10 | –
25 | N#Cc1c(/N=C/c2c[nH]c3ccc(Br)cc23)sc2c1CCNC2 [Compound 30] | – | – | IC50 [5, 8]: > 10 µM; IC50 [3, 6]: > 10 µM
26 | CC(C)(C)OC(=O)N1CCc2c(sc(/N=C/c3c[nH]c4ccc(Br)cc34)c2C#N)C1 [Compound 31] | > 10 | > 10 | –
27 | N#Cc1c(/N=C/c2c[nH]c3ccccc23)[se]c2c1CCCC2 [Compound 32] | > 10 | – | IC50 Promastigotes [1]: not active up to the highest concentration evaluated
28 | N#Cc1ccc2[nH]cc(/C=N/c3[se]c4c(c3C#N)CCCC4)c2c1 [Compound 33] | 9.32 | – | CC50 at 48 h [4]: 203 µM
29 | N#Cc1c(/N=C/c2c[nH]c3cccc([N+](=O)[O-])c23)[se]c2c1CCCC2 [Compound 34] | < 3.5 | – | IC50 [1]: 2.14 µM; CC50 at 48 h [4]: 189 µM
30 | Cc1ccc2[nH]cc(/C=N/c3[se]c4c(c3C#N)CCCC4)c2c1 [Compound 35] | > 10 | – | IC50 Promastigotes [1]: not active up to the highest concentration evaluated
31 | Cc1cccc2c(/C=N/c3[se]c4c(c3C#N)CCCC4)c[nH]c12 [Compound 36] | < 3.5 | – | IC50 [1]: 2.92 µM; CC50 at 48 h [4]: 186 µM
32 | N#Cc1c(/N=C/c2c[nH]c3cccc(Br)c23)[se]c2c1CCCC2 [Compound 37] | 4.5 | – | CC50 at 48 h [4]: 242 µM
33 | N#Cc1c(/N=C/c2c[nH]c3ccc(Br)cc23)[se]c2c1CCCC2 [Compound 38] | < 3.5 | – | IC50 [1]: 3.49 µM; CC50 at 48 h [4]: 239 µM
34 | COc1cccc2[nH]cc(/C=N/c3[se]c4c(c3C#N)CCCC4)c12 [Compound 39] | < 3.5 | – | IC50 [1]: 2.15 µM; CC50 at 48 h [4]: 178 µM
35 | COc1ccc2[nH]cc(/C=N/c3[se]c4c(c3C#N)CCCC4)c2c1 [Compound 40] | > 10 | – | IC50 Promastigotes [1]: not active up to the highest concentration evaluated
36 | N#Cc1c(/N=C/c2c[nH]c3cccc(Br)c23)sc2c1CCCCCC2 [Compound 42, reference compound] | – | – | IC50 [5, 10]: 1.7 µM and 1.71 µM; IC50 [3, 11]: 2.9 µM and 2.97 µM
37 | N=C(N)c1ccc(OCCCCCOc2ccc(C(=N)N)cc2)cc1 [Pentamidine, reference compound] | 42.3 | – | CC50 at 48 h [4]: 294 µM
38 | N#Cc1c(/N=C/c2c[nH]c3ccccc23)sc2c1CCCCC2 [SB-44, reference compound] | – | – | IC50 ([5]; L. amazonensis amastigotes, previously published, read-out: IC50 Amastigotes): 15.8 µM; EC50 ([5]; L. amazonensis amastigotes, read-out: EC50 against amastigotes): 15.8 µM; IC50 [3, 6]: 7.3 µM and 7.37 µM
39 | Cc1ccc2[nH]cc(/C=N/c3sc4c(c3C#N)CCCC4)c2c1 [TN6-1, reference compound] | – | – | IC50 [3, 12]: 7.2 µM
40 | N#Cc1c(/N=C/c2c[nH]c3ccccc23)sc2c1CCCCC2 [TN7, reference compound] | – | – | IC50 [3, 12]: 10 µM
41 | Meglumine antimoniate [reference compound] | – | – | IC50 [1]: 70.3 µM and 58.9 µM and 67.9 µM; IC50 [5, 10]: 2.77 µM; IC50 [3, 11]: 70.3 µM
